Experimental data taken from PMC8129133, “Polymer-free corticosteroid dimer implants for controlled and sustained drug delivery” (Nature Communications, 2021).
“And” between values parts separate entries of the source, which are not always exact repeats. Equal entries are not always repeated.

Assays:
[1] = Tolerability study of intravitreal implants (IOP, IR fundus imaging, histopathology); assay type: in vivo
Description: Tolerability study. The tolerability study was conducted at Absorption Systems California (San Diego, CA, USA) under the same animal care and ethics guidelines and approval systems as indicated above in the Pharmacodynamics section. […] Animals were anesthetized with intramuscular ketamine hydrochloride (30–32 mg/kg) and xylazine (5–10 mg/kg), with glycopyrrolate (0.01–0.02 mg/kg, intramuscular) administered concurrently. Eyes were prepped with 1–2 drops of topical proparacaine hydrochloride (0.5%). Prior to implant or sham treatment, eyes received one drop of 10% phenylephrine and 1% tropicamide. 5% betadine solution was used to clean the eye and surrounding area. Group 1 underwent a sham injection procedure, while Group 2 and Group 3 were administered 2× and 3× 30 G × 6 mm Dex-TEG-Dex implants via intravitreal injection, respectively. […] IOP measurements were performed on both eyes at baseline and designated timepoints up to 52 weeks thereafter using a pneumotonometer. Eyes received 1–2 drops of topical proparacaine hydrochloride (0.5%) prior to IOP measurements, and measurements were taken at approximately the same time of day (±2 h). Wide angle infrared (IR) imaging was performed at baseline and at designated timepoints using a Heidelberg Spectralis® imaging platform. Prior to imaging, eyes were dilated with 1 drop each of 10% phenylephrine and 1% tropicamide. […] Animals were euthanized via pentobarbital overdose (150 mg/kg, intravenous).
Histopathology. […] Eyes were then transferred to 70% ethanol. Eyes were embedded in paraffin and sectioned using a microtome. Five sections were generated from each eye and stained with hematoxylin and eosin (H&E). All stained sections were microscopically evaluated by an ACVP veterinary pathologist.

[2] = Shelf-life stability study (polarized light microscopy); assay type: physicochemical; details: extruded amorphous implants
Description: Extruded Dex-TEG-Dex implants were assessed for shelf-life stability. Melt extruded Dex-TEG-Dex materials were packaged in the lumen of 30 G needles (BD) and stored in an anhydrous pouch containing desiccant. Samples were aged at 25 °C, 40 °C, and 70 °C for up to 4 months, corresponding to real-time aging of 126 days (25 °C, 4 months), 356 days (40 °C, 4 months), and 2851 days (70 °C, 4 months). At specified time points, samples were removed from their packaging and assessed by polarized light microscopy as outlined below.
Samples were placed on glass slides, cross-sectioned as needed and imaged with a polarizing light microscope (SM-LUX-POL, Leitz) equipped with a Leica EC4 digital camera (Leica) using LAS EZ v.3.2.0 software (Leica). Additionally, a λ-plate compensator was used to assist in evaluation of features with weak birefringence.

[3] = Composition of pellets as made and after release; assay type: physicochemical; details: Supp Fig 5
Description: Release studies were carried out using different media, including PBS (pH 7.4, Gibco), 100% FBS (Sigma, F1051), 1% FBS in PBS pH 7.4, and 3.6% BSA (Sigma, A7906) in PBS (pH 7.4, Gibco). Sink conditions were maintained across all of the in vitro release studies through frequent buffer changes, ensuring that the released drug concentration was always at least five times lower than the solubility limit of the drug in the release buffer being used in order to avoid changes in release kinetics caused by drug levels approaching their saturation limit. Samples were incubated in release medium at 37 °C under constant agitation on an orbital shaker at 115 rpm (VWR). At designated timepoints, sampling was performed by complete removal of medium and replenishment with fresh buffer. Sampling timepoints included 24 h and then every 3–4 days thereafter. For PBS release conditions, samples were analyzed directly. For samples with protein (100% FBS, 1% FBS, 3.6% BSA), protein was precipitated by addition of acetonitrile. Samples were vortexed and centrifuged to separate extracted drug from precipitated protein. The supernatant was then analyzed for drug concentration by HPLC.
Supplementary Figure 5 Proportion of dexamethasone in different forms, namely Dex-TEG-Dex, Dex-TEG, and free Dex (Dex – dexamethasone, TEG – triethylene glycol) in heat-molded pellets as-made and […]
the dimer following submersion in release buffer for 14 days. N=4 samples for as made and N=3 samples for 14 days. Data represent the mean ± standard deviation.
(1 picture or pasted object on this page, not shown here)

[4] = pellets after release in 100% FBS, t=14d

C[C@@H]1C[C@H]2[C@@H]3CCC4=CC(=O)C=C[C@]4(C)[C@@]3(F)[C@@H](O)C[C@]2(C)[C@@]1(O)C(=O)COC(=O)OCCOCCOCCOC(=O)OCC(=O)[C@@]1(O)[C@H](C)C[C@H]2[C@@H]3CCC4=CC(=O)C=C[C@]4(C)[C@@]3(F)[C@@H](O)C[C@@]21C [Dex-TEG-Dex]
IR fundus images ([1]; two and three implant eyes, baseline and 3, 6, 9, 12 months): unremarkable | tolerability ([1]; two or three 30 G × 6 mm implants intravitreally, 12 months): well tolerated | histopathology findings ([1]; two or three 30 G × 6 mm implants, H&E): no microscopic or macroscopic findings | crystallinity after shelf-life storage [2]: no evidence of crystallinity | Proportion of dexamethasone as Dex-TEG-Dex ([3]; heat-molded pellets as-made, t=0): 99.32 and 99.47 and 99.36 and 99.44 | Proportion of dexamethasone as Dex-TEG [3, 4]: 0.046 and 0.04 | Proportion of dexamethasone as Dex-TEG-Dex [3, 4]: 99.38 and 99.32 and 99.44
